Data on two molecules can be found in publication PMC10629462 (Molecular cell, 2023).

The target of one data set is CtSen1^FL (Thermochaetoides thermophila, UniProt G0S163). The data set can be described thus: malachite green phosphate release ATPase assay. The format is biochemical. The note with it: 1 mM ATP, 2 mM MgCl2, pH 7.5, 37 °C, RNA-DNA Sub6 5 μM, 5 nM enzyme.
In the next data set the target is T1, CtSen1Hel-1878 (Chaetomium thermophilum, UniProt G0S163 1087-1878).
T1 sequence: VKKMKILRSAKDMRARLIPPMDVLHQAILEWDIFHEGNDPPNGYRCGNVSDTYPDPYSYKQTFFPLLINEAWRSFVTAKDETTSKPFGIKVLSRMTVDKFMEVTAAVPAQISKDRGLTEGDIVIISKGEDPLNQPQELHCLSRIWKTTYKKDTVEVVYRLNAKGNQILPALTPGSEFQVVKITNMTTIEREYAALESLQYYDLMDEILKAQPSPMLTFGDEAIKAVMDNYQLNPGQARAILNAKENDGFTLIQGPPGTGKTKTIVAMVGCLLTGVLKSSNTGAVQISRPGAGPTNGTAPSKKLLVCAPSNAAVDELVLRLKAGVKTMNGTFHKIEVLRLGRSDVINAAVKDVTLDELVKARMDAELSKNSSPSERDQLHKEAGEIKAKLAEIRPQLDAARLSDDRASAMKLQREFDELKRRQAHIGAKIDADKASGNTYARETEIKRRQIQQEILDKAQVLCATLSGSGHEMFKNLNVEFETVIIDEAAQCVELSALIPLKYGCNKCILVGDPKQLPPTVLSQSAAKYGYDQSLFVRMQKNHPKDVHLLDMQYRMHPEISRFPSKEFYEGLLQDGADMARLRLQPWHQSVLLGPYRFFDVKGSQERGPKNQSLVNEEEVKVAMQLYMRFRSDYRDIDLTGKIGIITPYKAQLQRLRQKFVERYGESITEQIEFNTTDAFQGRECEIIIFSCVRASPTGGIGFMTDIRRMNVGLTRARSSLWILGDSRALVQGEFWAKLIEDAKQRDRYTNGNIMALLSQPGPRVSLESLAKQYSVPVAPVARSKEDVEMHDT
The data set can be described thus: X-ray crystallography.

Sequence of CtSen1^FL (G0S163 1-1993): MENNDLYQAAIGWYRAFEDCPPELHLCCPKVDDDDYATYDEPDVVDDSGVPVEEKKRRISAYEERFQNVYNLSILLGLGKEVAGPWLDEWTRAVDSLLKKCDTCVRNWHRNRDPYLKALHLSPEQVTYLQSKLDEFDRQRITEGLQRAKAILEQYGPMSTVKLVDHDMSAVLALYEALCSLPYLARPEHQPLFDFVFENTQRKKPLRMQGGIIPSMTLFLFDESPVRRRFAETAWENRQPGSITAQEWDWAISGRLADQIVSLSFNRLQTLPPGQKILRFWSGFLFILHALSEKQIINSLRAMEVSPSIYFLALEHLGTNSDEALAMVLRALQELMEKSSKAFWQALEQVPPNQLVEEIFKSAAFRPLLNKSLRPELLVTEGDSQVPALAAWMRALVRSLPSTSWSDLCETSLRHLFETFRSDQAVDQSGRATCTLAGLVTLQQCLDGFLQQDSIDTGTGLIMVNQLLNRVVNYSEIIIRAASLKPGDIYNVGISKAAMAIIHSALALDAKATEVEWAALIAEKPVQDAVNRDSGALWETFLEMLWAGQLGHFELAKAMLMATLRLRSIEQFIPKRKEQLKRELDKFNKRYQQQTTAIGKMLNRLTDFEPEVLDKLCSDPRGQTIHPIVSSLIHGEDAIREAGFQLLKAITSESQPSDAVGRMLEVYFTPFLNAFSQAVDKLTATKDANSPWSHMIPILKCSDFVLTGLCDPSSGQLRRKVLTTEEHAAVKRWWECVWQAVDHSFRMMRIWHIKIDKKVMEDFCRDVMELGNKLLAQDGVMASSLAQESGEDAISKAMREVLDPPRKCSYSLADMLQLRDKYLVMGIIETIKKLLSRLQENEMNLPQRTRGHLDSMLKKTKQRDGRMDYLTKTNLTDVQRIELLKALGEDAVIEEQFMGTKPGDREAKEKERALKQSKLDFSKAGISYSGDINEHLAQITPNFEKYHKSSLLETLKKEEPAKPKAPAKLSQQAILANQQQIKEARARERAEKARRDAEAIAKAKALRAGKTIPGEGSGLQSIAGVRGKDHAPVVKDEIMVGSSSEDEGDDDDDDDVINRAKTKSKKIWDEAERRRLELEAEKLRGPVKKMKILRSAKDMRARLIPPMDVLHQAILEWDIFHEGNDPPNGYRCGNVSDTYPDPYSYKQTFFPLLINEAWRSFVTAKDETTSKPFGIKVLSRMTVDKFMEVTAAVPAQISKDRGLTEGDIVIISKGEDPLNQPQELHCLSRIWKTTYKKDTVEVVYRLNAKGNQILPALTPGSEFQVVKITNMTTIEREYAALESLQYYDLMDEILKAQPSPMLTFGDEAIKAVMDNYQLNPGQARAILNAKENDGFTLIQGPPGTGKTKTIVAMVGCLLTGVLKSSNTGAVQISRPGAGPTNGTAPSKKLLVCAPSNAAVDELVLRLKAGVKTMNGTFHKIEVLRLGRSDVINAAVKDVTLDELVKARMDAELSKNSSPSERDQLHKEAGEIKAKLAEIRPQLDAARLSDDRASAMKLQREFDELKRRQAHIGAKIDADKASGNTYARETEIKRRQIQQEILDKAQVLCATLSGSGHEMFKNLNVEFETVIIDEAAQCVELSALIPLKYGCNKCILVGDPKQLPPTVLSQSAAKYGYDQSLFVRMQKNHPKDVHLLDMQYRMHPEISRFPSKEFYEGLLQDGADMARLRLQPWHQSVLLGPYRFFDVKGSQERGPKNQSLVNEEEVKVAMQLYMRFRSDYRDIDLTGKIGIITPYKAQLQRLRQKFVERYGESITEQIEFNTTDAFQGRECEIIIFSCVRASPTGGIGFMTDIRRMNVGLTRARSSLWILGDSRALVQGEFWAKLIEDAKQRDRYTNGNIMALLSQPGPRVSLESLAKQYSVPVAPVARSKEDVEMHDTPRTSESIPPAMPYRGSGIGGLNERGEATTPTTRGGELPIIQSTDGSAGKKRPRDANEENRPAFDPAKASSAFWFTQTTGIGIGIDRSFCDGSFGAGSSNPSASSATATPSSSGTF

On to `Nc1ncnc2c1ncn2[C@@H]1O[C@H](COP(=O)(O)OP(=O)(O)OP(=O)(O)O)[C@@H](O)[C@H]1O` [ATP], for which, on CtSen1^FL, the “malachite green phosphate release ATPase assay” value is “Substrate stimulated ATP hydrolysis of mutant Sen1 proteins was monitored in a phosphate release assay”.
Consider UUUUUUUUUUUUUUU (ssRNA) [poly-U 15 nt], for which the binding result in the data set with CtSen1Hel-1878 is “binds”.
